Here are results for 9 compounds from patent US20240148821A1, “PHARMACEUTICAL USE OF CYCLIC PEPTIDE COMPOUND” (CHUGAI SEIYAKU KABUSHIKI KAISHA, priority 2021, published 2024).

Structures are written as SMILES. Numbered stars: 1 amine (or outer) side, 2 acyl side, 3 side chain; on linkers, the order of the positions; unused ones are H or OH. Bridge positions count the residues as written; N and C are the ends. Square brackets hold non-standard residues; d marks the D form. Peptide text beside a SMILES is read from it. * marks the point of attachment. hPhe(3-Cl-4-CF3) = N[C@@H](CCc1ccc(C(F)(F)F)c(Cl)c1)C(=O)O; hPhe(3-F,4-CF3) = N[C@@H](CCc1ccc(C(F)(F)F)c(F)c1)C(=O)O; NMePhe(4-CF3) = CN[C@@H](Cc1ccc(C(F)(F)F)cc1)C(=O)O; NMeAla(4-thiazolyl) = CN[C@@H](Cc1cscn1)C(=O)O; 3Oxa8azabicyclo(3.2.1)octane = C1CC2COCC1N2*; NMePhe(4-F) = CN[C@@H](Cc1ccc(F)cc1)C(=O)O; NMedβ3hAla = C[C@H](CC(=O)[*:2])N(C)[*:1]; NMeGly(cPent) = CN[C@H](C(=O)O)C1CCCC1; Phe(3-I) = N[C@@H](Cc1cccc(I)c1)C(=O)O; dαMeGly(allyl) = C=CC[C@@](C)(N)C(=O)O; NMeCha = CN[C@@H](CC1CCCCC1)C(=O)O; NMeChg = CN[C@H](C(=O)O)C1CCCCC1; NMeT = CN[C@H](C(=O)O)[C@@H](C)O; NMeD = CN[C@@H](CC(=O)O)C(=O)O; NMeL = CN[C@@H](CC(C)C)C(=O)O; NMePra = C#CC[C@H](NC)C(=O)O; NMeV = CN[C@H](C(=O)O)C(C)C; d(β3hA) = C[C@@H](N)CC(=O)O; NMeA = CN[C@@H](C)C(=O)O; NMeAib = CNC(C)(C)C(=O)O; Piperidide = C1CCN(*)CC1; Pra = C#CC[C@H](N)C(=O)O; Pyrrolidide = C1CCN(*)C1; dNMeA = CN[C@H](C)C(=O)O; Ac5c = NC1(C(=O)O)CCCC1; Aze = O=C(O)[C@@H]1CCN1; Thp = NC1(C(=O)O)CCOCC1; Sar = CNCC(=O)O

This assay has as its system Human pancreatic cancer cell line AsPC-1 (G12D mutation Kras). The experiment in a line: AsPC-1 cell growth inhibition (AsPC-1 CGI). The class given is cell-based. Particulars: read-out: AsPC-1 cell growth inhibition, 50% growth inhibitory concentration (IC50 value); 96 hours, CellTiter-Glo, values classified in ranges.
Procedure: Test compounds were serially dilated with dimethyl sulfoxide, and 200 nL was then dispensed to a U-bottom 96-well plate using Labcyte Echo. […] The cell suspension was dispensed to a. plate containing a test compound at 100 μL per well and incubated at 37° C. in a 5% carbon dioxide gas incubator. 96 hours later, 80 μL of CellTiter-Glo (Promega) was added to each well and fluorescence was measured.
With `CC[C@H](C)[C@@H]1NC(=O)[C@H](CC(C)C)N(C)C(=O)C[C@@H](C(=O)N2C3CCC2COC3)N(C)C(=O)[C@H](C2CCCC2)N(C)C(=O)C2(CCCC2)NC(=O)[C@@H]2CCCN2C(=O)[C@H](CCc2ccc(C(F)(F)F)c(F)c2)NC(=O)CN(C)C(=O)[C@H](CC2CCCCC2)N(C)C(=O)[C@@H]2CCN2C(=O)[C@H](C)N(C)C1=O` [Compound 734] ([NMeL]I[NMeA][Aze][NMeCha][Sar][hPhe(3-F,4-CF3)]P[Ac5c][NMeGly(cPent)][NMeD]-{3Oxa8azabicyclo(3.2.1)octane}; lactam N-11), the IC50 is no more than 20 nM. With `C=CC[C@@]1(C)NC(=O)[C@@H]2CCCN2C(=O)[C@H](CCc2ccc(C(F)(F)F)c(Cl)c2)NC(=O)CN(C)C(=O)[C@H](CC2CCCCC2)N(C)C(=O)CN(C)C(=O)CN(C)C(=O)[C@H]([C@@H](C)CC)NC(=O)[C@H](CC(C)C)N(C)C(=O)C[C@@H](C)NC(=O)[C@H](C(C)C)N(C)C1=O` [Compound 665] (cyclo(I[Sar][Sar][NMeCha][Sar][hPhe(3-Cl-4-CF3)]P[dαMeGly(allyl)][NMeV][d(β3hA)][NMeL])), the IC50 is greater than 500 nM. Take `CC[C@H](C)[C@@H]1NC(=O)[C@H](CC(C)C)N(C)C(=O)C[C@@H](C(=O)N(C)C)N(C)C(=O)[C@H](C2CCCC2)N(C)C(=O)[C@H](C)NC(=O)[C@H](Cc2cscn2)N(C)C(=O)[C@H](CCc2ccc(C(F)(F)F)c(Cl)c2)NC(=O)CN(C)C(=O)[C@H](CC2CCCCC2)N(C)C(=O)[C@@H]2CCN2C(=O)[C@H](C)N(C)C1=O` [Compound 805] ([NMeL]I[NMeA][Aze][NMeCha][Sar][hPhe(3-Cl-4-CF3)][NMeAla(4-thiazolyl)]A[NMeGly(cPent)][NMeD]-NMe2; lactam N-11): the IC50 was greater than 500 nM.

With `CC[C@H](C)[C@@H]1NC(=O)[C@H](C)N(C)C(=O)C[C@@H](C)NC(=O)[C@H](C2CCCC2)N(C)C(=O)C2(CCCC2)NC(=O)[C@@H]2CCCN2C(=O)[C@H](CCc2ccc(C(F)(F)F)c(Cl)c2)NC(=O)[C@@H](C)N(C)C(=O)[C@H](Cc2ccc(F)cc2)N(C)C(=O)[C@@H]2CCN2C(=O)[C@H](C)N(C)C1=O` [Compound 584] (cyclo([Ac5c][NMeGly(cPent)][d(β3hA)][NMeA]I[NMeA][Aze][NMePhe(4-F)][dNMeA][hPhe(3-Cl-4-CF3)]P)), the IC50 was greater than 500 nM. On to `C#CC[C@H]1C(=O)N(C)CC(=O)N[C@@H](CCc2ccc(C(F)(F)F)c(Cl)c2)C(=O)N2CCC[C@H]2C(=O)NC2(CCCC2)C(=O)N(C)[C@@H](C2CCCCC2)C(=O)N(C)[C@H](C(=O)N2CCCCC2)CC(=O)N(C)[C@@H](CC(C)C)C(=O)N[C@@H]([C@@H](C)CC)C(=O)N(C)CC(=O)N(C)CC(=O)N1C` [Compound 554] ([NMeL]I[Sar][Sar][NMePra][Sar][hPhe(3-Cl-4-CF3)]P[Ac5c][NMeChg][NMeD]-Piperidide; lactam N-11), for which the IC50 was greater than 500 nM. For `CC[C@H](C)[C@@H]1NC(=O)[C@H](CC(C)C)N(C)C(=O)C[C@@H](C(=O)N2CCCCC2)N(C)C(=O)[C@H]([C@@H](C)OC)N(C)C(=O)C2(CCCC2)NC(=O)[C@@H]2CCCN2C(=O)[C@H](CCc2ccc(C(F)(F)F)c(Cl)c2)NC(=O)CN(C)C(=O)[C@H](CC2CCCCC2)N(C)C(=O)CN(C)C(=O)CN(C)C1=O` [Compound 1101] ([NMeL]I[Sar][Sar][NMeCha][Sar][hPhe(3-Cl-4-CF3)]P[Ac5c][NMeT](Me)[NMeD]-Piperidide; lactam N-11), the IC50 was greater than 500 nM. The figure for `C#CC[C@@H]1NC(=O)[C@H](Cc2cccc(I)c2)NC(=O)CN(C)C(=O)[C@H](Cc2ccc(C(F)(F)F)cc2)N(C)C(=O)[C@@H]2CCN2C(=O)[C@H](C)N(C)C(=O)[C@H]([C@@H](C)CC)NC(=O)[C@H](CC(C)C)N(C)C(=O)C[C@@H](C(=O)N2CCCCC2)N(C)C(=O)[C@H](CC(C)C)NC(=O)C(C)(C)N(C)C1=O` [Compound 1258] ([NMeL]I[NMeA][Aze][NMePhe(4-CF3)][Sar][Phe(3-I)][Pra][NMeAib]L[NMeD]-Piperidide; lactam N-11) is greater than 500 nM; for `CC[C@H](C)[C@@H]1NC(=O)[C@H](CC(C)C)N(C)C(=O)C[C@@H](C)N(C)C(=O)[C@H](CC(C)C)N(C)C(=O)C2(CCOCC2)NC(=O)[C@@H]2CCCN2C(=O)[C@H](CCc2ccc(C(F)(F)F)c(F)c2)NC(=O)CN(C)C(=O)[C@H](CC2CCCCC2)N(C)C(=O)CN(C)C(=O)CN(C)C1=O` [Compound 407] (cyclo(I[Sar][Sar][NMeCha][Sar][hPhe(3-F,4-CF3)]P[Thp][NMeL][NMedβ3hAla][NMeL])) it is greater than 500 nM; for `CC[C@H](C)[C@@H]1NC(=O)[C@H](CC(C)C)N(C)C(=O)C[C@@H](C(=O)N2CCCC2)NC(=O)[C@H](CC(C)C)N(C)C(=O)C2(CCCC2)NC(=O)[C@@H]2CCCN2C(=O)[C@H](CCc2ccc(C(F)(F)F)c(F)c2)NC(=O)CN(C)C(=O)[C@H](CC2CCCCC2)N(C)C(=O)CN(C)C(=O)CN(C)C1=O` [Compound 1489] ([NMeL]I[Sar][Sar][NMeCha][Sar][hPhe(3-F,4-CF3)]P[Ac5c][NMeL]D-Pyrrolidide; lactam N-11) it is greater than 500 nM.
